Assay results from patent US20060003362A1, “ENT1 transporters expressed in cancer cells” (Xenoport, Inc., priority 2004, published 2006).

Biological target: T1, ENT1 (Homo sapiens, UniProt Q99808)
T1 construct: expressed in transfected cells; host or cells: Xenopus oocytes injected with ENT1 cRNA
T1 sequence (Q99808 1-456): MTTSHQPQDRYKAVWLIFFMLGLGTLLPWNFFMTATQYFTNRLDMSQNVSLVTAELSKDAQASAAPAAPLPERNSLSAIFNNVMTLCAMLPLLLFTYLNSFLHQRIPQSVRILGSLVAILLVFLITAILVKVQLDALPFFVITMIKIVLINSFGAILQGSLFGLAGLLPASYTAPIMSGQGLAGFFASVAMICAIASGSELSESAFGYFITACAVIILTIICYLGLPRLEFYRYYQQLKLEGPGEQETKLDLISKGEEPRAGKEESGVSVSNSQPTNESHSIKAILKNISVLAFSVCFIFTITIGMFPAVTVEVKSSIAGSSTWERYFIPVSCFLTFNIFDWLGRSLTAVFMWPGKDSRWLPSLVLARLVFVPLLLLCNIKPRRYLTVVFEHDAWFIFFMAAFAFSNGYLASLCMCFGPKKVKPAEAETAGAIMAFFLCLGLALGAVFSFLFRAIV
Test: Uptake of radiolabel into Xenopus oocytes expressing ENT1
Format: cell-based
Details: Xenopus oocytes injected with ENT1 cRNA, 10 minutes, scintillation counting
Description: To assess transport function of a specific transporter protein, it can be desirable to clone the cDNA and express the protein in cells that have low endogenous transport activity. Human ENT1 was cloned by PCR, fully sequenced, and subcloned into plasmids that can be used for expression in mammalian cells or Xenopus oocytes. […] For expression in Xenopus oocytes, in vitro ENT1 cRNA was prepared and injected into defoliculated oocytes.
Oocytes expressing ENT1 or control oocytes not expressing ENT1 were incubated in an oocyte ringers (ND96) buffer (90 mM NaCl, 10 mM HemiNa HEPES, 2 mM KCl, 1 mM MgCl, 1.8 mM CaCl2) containing 0.5% bovine serum albumin and 3H urindine (10^6 CPM/ml) for 10 minutes. Oocytes were washed and uptake of radiolabel quantified by scintillation counting.

Nc1ccn([C@@H]2O[C@H](CO)[C@@H](O)C2(F)F)c(=O)n1 [^3H-gemcitabine, gemcitabine]
uptake into oocytes expressing ENT1 versus noninjected controls: higher levels
